The values that follow come from patent publication US8492374B2, “Azaazulene compounds” (Industrial Technology Research Institute, priority 2009, dated 2013).

One test has as its target T1, FLT-3 kinase (Homo sapiens, UniProt P36888).
T1 construct: human FLT-3 (Arg571-Ser993); GST (N); purchased Cell Signaling Technology HTScan FLT-3 Kinase Assay Kit; host or cells: baculovirus expression system
T1 sequence (P36888 571-993): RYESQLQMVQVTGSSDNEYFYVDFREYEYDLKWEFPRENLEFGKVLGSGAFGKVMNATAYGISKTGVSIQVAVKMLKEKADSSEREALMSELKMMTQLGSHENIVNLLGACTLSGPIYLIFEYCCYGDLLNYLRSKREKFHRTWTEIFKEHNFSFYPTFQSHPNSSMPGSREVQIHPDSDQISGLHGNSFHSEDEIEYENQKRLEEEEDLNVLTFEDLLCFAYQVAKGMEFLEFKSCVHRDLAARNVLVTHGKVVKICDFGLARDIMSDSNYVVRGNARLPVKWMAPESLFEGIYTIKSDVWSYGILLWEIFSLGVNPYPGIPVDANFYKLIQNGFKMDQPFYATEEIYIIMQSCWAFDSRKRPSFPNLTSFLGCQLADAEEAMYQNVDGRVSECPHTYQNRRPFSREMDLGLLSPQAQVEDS
Kind of test: FLT-3 kinase DELFIA assay (HTScan FLT-3 Kinase Assay Kit). It counts as biochemical. The conditions noted are these: 20 uM ATP; for inhibition at 0.1 µM: 0.1 uM compound; for inhibition at 1 µM: 1 uM compound. How it is done: Azaazulene Compounds of this invention were treated for their efficacy in inhibiting activities of FLT-3, c-KIT and KDR kinases by biochemical DELFIA (Dissociation Enhanced Lanthanide FIA) assays according to the procedure described below. The assays were conducted by, Division of Cell Engineering, Biomedical Engineering Research Laboratories, Industrial Technology Research Institute, Bldg. 53, 195, sec. 4, Chung Hsing Rd. Chutung, Hsinchu, Taiwan 310, R.O.C.
The FLT-3 assay was conducted following the protocol described in Protocol for HTScang FLT-3 Kinase Assay Kit (Cell Signaling Technology®).

Test [1] deals with MV4-11 (FLT3-ITD) cell line. Kind of test: In vitro cell activity assay (MTT cell viability, 72 hours). Format: cell-based. The conditions noted are these: Homo sapiens, 72 hours at 37° C., 10,000 cells per well, read-out: IC50 against MV4-11. Here is the method: Human MV4-11 (FLT3-ITD) cell line was obtained from American Tissue Culture Collection (ATCC number: CRL-9591). The cell line was cultured with RPMI 1640 containing 10% fetal bovine serum, 1 mmol/L sodium pyruvate and 10 mmol/L HEPES (pH 7.4). The cell was grown and maintained in a humidified atmosphere at 37° C. and 5% carbon dioxide.
MV4-11 cell was plated in 96-well microtiter plates (10,000 cells per well) and serial dilutions of indicated compounds were added. At the end of the incubation period (72 hours at 37° C.), cell viability was determined by a tetrazolium dye, MTT (3-(4,5-dimethylthiazol-2-yl)-2,5-diphenyl tetrazolium bromide) (Promega, Madison, Wis.). The formazan crystals were dissolved by DMSO, and the absorbance at a wavelength of 600 nm was recorded using an ELISA plate reader. IC50 values were calculated using nonlinear regression and defined as the concentration needed for a 50% reduction in absorbance of treated versus untreated control cells.

On to `CN1CCN(c2ccc3[nH]c(-c4c5cccccc-5[nH]c4=O)nc3c2F)CC1` [Compound B51], for which, on FLT-3 kinase, the inhibition – broadly, the drop in the measured response relative to a control, in per cent – at 0.1 µM turned out to be 20.6% and the inhibition at 1 µM was 66.6%. The IC50 (usually the concentration needed to halve the response being measured) in test [1] stood at 99.1 nM.

`CN1CCN(c2c(F)cc3[nH]c(-c4c5cccccc-5[nH]c4=O)nc3c2F)CC1` [Compound B52]: at FLT-3 kinase, at 0.1 µM the inhibition was 20.3% and the inhibition at 1 µM worked out at 42.5%. Moreover, the IC50 in test [1] amounted to 635 nM.

On FLT-3 kinase, `O=CN1CCN(c2ccc3[nH]c(-c4c5cccccc-5[nH]c4=O)nc3c2)CC1` [Compound B54] displayed an inhibition at 0.1 µM of 46% and an inhibition at 1 µM of 91.6%. In addition, the IC50 in test [1] was 74 nM.

As to `O=C(Nc1ccccc1)N1CCN(c2ccc3[nH]c(-c4c5cccccc-5[nH]c4=O)nc3c2)CC1` [Compound B55], at FLT-3 kinase, the inhibition at 0.1 µM amounted to 45.2% and 1 µM produced 93.2% inhibition. Also, the IC50 in test [1] is 93.8 nM.

At FLT-3 kinase, `CS(=O)(=O)N1CCN(c2ccc3[nH]c(-c4c5cccccc-5[nH]c4=O)nc3c2)CC1` [Compound B57] displayed an inhibition at 0.1 µM of 29.5% and an inhibition at 1 µM of 81.5%. Also, in test [1], the IC50 amounted to 104 nM.

At FLT-3 kinase, `O=c1[nH]c2cccccc-2c1-c1nc2cc(N3CCN(S(=O)(=O)CCCl)CC3)ccc2[nH]1` [Compound B58] showed an inhibition at 0.1 µM of 35.7% and an inhibition at 1 µM of 83.8%. Moreover, in test [1], the IC50 was 67.2 nM.

On FLT-3 kinase, `O=Cc1ccc(N2CCN(c3ccc4[nH]c(-c5c6cccccc-6[nH]c5=O)nc4c3)CC2)o1` [Compound B59] came in with an inhibition at 0.1 µM of 55.6% and an inhibition at 1 µM of 96.1%. The IC50 in test [1] was found to be 146 nM.

`O=c1[nH]c2cccccc-2c1-c1nc2cc(N3CCN(c4ccncc4)CC3)ccc2[nH]1` [Compound B60]: at FLT-3 kinase, the inhibition at 0.1 µM worked out at 71.7% and the inhibition at 1 µM is 99.1%. Moreover, the half-inhibitory concentration (IC50) in test [1] came out at 5.9 nM.

Regarding `O=c1[nH]c2cccccc-2c1-c1nc2cc(N3CCN(c4c(F)cncc4F)CC3)ccc2[nH]1` [Compound B61], at FLT-3 kinase, the inhibition at 0.1 µM amounted to 17.7% and testing at 1 µM gave an inhibition of 74.3%. Moreover, the 50% inhibitory concentration (IC50) in test [1] was determined as 270 nM.

`Nc1cc(N2CCN(c3ccc4[nH]c(-c5c6cccccc-6[nH]c5=O)nc4c3)CC2)ccn1` [Compound B62]: at FLT-3 kinase, the inhibition at 0.1 µM is 9.5% and the inhibition at 1 µM turned out to be 13.7%. Moreover, the half-inhibitory concentration (IC50) in test [1] is over 5000 nM.

On FLT-3 kinase, `O=c1[nH]c2cccccc-2c1-c1nc2cc(N3CCN(c4cccnc4)CC3)ccc2[nH]1` [Compound B63] had an inhibition at 0.1 µM of 18.9% and an inhibition at 1 µM of 33.4%. Moreover, in test [1], the IC50 came to 473 nM.

At FLT-3 kinase, `O=c1[nH]c2cccccc-2c1-c1nc2cc(N3CCN(c4ccccn4)CC3)ccc2[nH]1` [Compound B64] gave an inhibition at 0.1 µM of 29.5% and an inhibition at 1 µM of 79.2%. In addition, in test [1], the IC50 came out at 250 nM.

At FLT-3 kinase, `O=c1[nH]c2cccccc-2c1-c1nc2cc(N3CCN(c4ncccc4[N+](=O)[O-])CC3)ccc2[nH]1` [Compound B65] registered an inhibition at 0.1 µM of 16.3% and an inhibition at 1 µM of 60.5%. The concentration for half-maximal inhibition (IC50) in test [1] was 278 nM.

Take `O=c1[nH]c2cccccc-2c1-c1nc2cc(N3CCN(c4ncccc4Cl)CC3)ccc2[nH]1` [Compound B66]: at FLT-3 kinase, the inhibition at 0.1 µM is 20.3% and the inhibition at 1 µM came to 55.5%. For the same compound, in test [1], the IC50 amounted to 466 nM.

In the case of `Cc1cc(N2CCN(c3ccc4[nH]c(-c5c6cccccc-6[nH]c5=O)nc4c3)CC2)nc(N(C)C)n1` [Compound B67], on FLT-3 kinase, the inhibition at 0.1 µM stood at 43.3% and testing at 1 µM gave an inhibition of 95.3%. Further, in test [1], the half-inhibitory concentration (IC50) is 77.8 nM.

At FLT-3 kinase, `O=c1[nH]c2cccccc-2c1-c1nc2cc(N3CCN(c4ncccn4)CC3)ccc2[nH]1` [Compound B68] displayed an inhibition at 0.1 µM of 39.1% and an inhibition at 1 µM of 80.7%. Further, the IC50 in test [1] is 234 nM.

On FLT-3 kinase, `O=c1[nH]c2cccccc-2c1-c1nc2cc(N3CCN(c4cnccn4)CC3)ccc2[nH]1` [Compound B69] came in with an inhibition at 0.1 µM of 29.3% and an inhibition at 1 µM of 77.3%. Further, the IC50 in test [1] fell in the range of 100 to 500 nM.

On to `CN1CCN(C(=O)c2ccc3[nH]c(-c4c5cccccc-5[nH]c4=O)nc3c2)CC1` [Compound B71], for which, on FLT-3 kinase, at 0.1 µM the inhibition was 6.8% and the inhibition at 1 µM came out at 39.3%. Also, the IC50 in test [1] was determined as 957 nM.

On FLT-3 kinase, `O=C(c1ccc2[nH]c(-c3c4cccccc-4[nH]c3=O)nc2c1)N1CCN(c2ccncc2)CC1` [Compound B72] gave an inhibition at 0.1 µM of 36.8% and an inhibition at 1 µM of 85.5%. In addition, the IC50 in test [1] lay in the range of 50 to 100 nM.

On FLT-3 kinase, `O=C(Nc1ccc(N2CCCC2)cn1)c1ccc2[nH]c(-c3c4cccccc-4[nH]c3=O)nc2c1` [Compound B73] displayed an inhibition at 0.1 µM of 23.7% and an inhibition at 1 µM of 22.3%. In test [1], the IC50 is about 1000 nM.

On to `CN1CCCN(C(=O)c2ccc3[nH]c(-c4c5cccccc-5[nH]c4=O)nc3c2)CC1` [Compound B74], for which, on FLT-3 kinase, 0.1 µM produced 27.1% inhibition and 1 µM produced 64% inhibition. Further, the half-inhibitory concentration (IC50) in test [1] was 163 nM.

For the compound `O=C(Nc1ccc2[nH]c(-c3c4cccccc-4[nH]c3=O)nc2c1)c1ccncc1` [Compound B75], at FLT-3 kinase, the inhibition at 0.1 µM turned out to be 13.4% and the inhibition at 1 µM worked out at 37.1%. Further, the half-maximal inhibitory concentration (IC50) in test [1] was about 1000 nM.

At FLT-3 kinase, `O=c1[nH]c2cccccc-2c1-c1nc2cc(N3CCCNCC3)ccc2[nH]1` [Compound B76] registered an inhibition at 0.1 µM of 50% and an inhibition at 1 µM of 92.9%. Further, in test [1], the IC50 came out at 25.6 nM.

For `CN1CCCN(c2ccc3[nH]c(-c4c5cccccc-5[nH]c4=O)nc3c2)CC1` [Compound B77], at FLT-3 kinase, 0.1 µM produced 47.1% inhibition and the inhibition at 1 µM was found to be 94.3%. In test [1], the half-maximal inhibitory concentration (IC50) was 39.2 nM.

On to `O=c1[nH]c2cccccc-2c1-c1nc2cc(N3CCCN(CCF)CC3)ccc2n1CCF` [Compound B78], for which, at FLT-3 kinase, the inhibition at 0.1 µM turned out to be 20.3% and the inhibition at 1 µM is 39.4%. The IC50 in test [1] was 100 to 500 nM.

As to `O=c1[nH]c2cccccc-2c1-c1nc2cc(N3CCCNCC3)ccc2n1CCF` [Compound B79], on FLT-3 kinase, the inhibition at 0.1 µM was 22.3% and at 1 µM the inhibition was 36.6%. Further, the IC50 in test [1] is 346 nM.

At FLT-3 kinase, `CN1CCCN(c2cc3nc(-c4c5cccccc-5[nH]c4=O)[nH]c3cc2F)CC1` [Compound B85] came in with an inhibition at 0.1 µM of 44.4% and an inhibition at 1 µM of 89.8%. Moreover, the half-inhibitory concentration (IC50) in test [1] was 131 nM.

At FLT-3 kinase, `O=C(O)CCC(=O)N1CCCN(c2ccc3[nH]c(-c4c5cccccc-5[nH]c4=O)nc3c2)CC1` [Compound B89] registered an inhibition at 0.1 µM of 20% and an inhibition at 1 µM of 56.7%. Further, in test [1], the half-maximal inhibitory concentration (IC50) was over 5000 nM.

As for `CS(=O)(=O)N1CCCN(c2ccc3[nH]c(-c4c5cccccc-5[nH]c4=O)nc3c2)CC1` [Compound B90], on FLT-3 kinase, the inhibition at 0.1 µM stood at 23% and testing at 1 µM gave an inhibition of 59.2%. The IC50 in test [1] is 504 nM.

On FLT-3 kinase, `CN(C)S(=O)(=O)N1CCCN(c2ccc3[nH]c(-c4c5cccccc-5[nH]c4=O)nc3c2)CC1` [Compound B91] returned an inhibition at 0.1 µM of 14.3% and an inhibition at 1 µM of 42.5%. Besides, the IC50 in test [1] stood at 876 nM.

For `O=C(c1ccc2[nH]c(-c3c4cccccc-4[nH]c3=O)nc2c1)N1CCCN(c2ccncc2)CC1` [Compound B92], at FLT-3 kinase, the inhibition at 0.1 µM came out at 17.9% and at 1 µM the inhibition was 51.4%. Moreover, the IC50 in test [1] was 910 nM.
